From patent US20250235444A1, “COMPOSITION FOR PREVENTING OR TREATING VALVULAR CALCIFICATION” (MOKPO NATIONAL UNIVERSITY INDUSTRY-ACADEMIA COOPERATION …, priority 2022, published 2025) come the findings set out here.

For assay [1], the system named is porcine valvular interstitial cells. The assay is described as follows: Calcification of porcine valvular interstitial cells induced by NaH2PO4 (PCM), Alizarin red staining and CPC analysis. It is filed as cell-based. The conditions noted are these: pro-calcifying medium with 2 mM NaH2PO4, 10 days. The protocol: (§1) To isolate porcine valvular interstitial cells, porcine heart valves were treated with collagenase for 15 minutes, after which endothelial cells were removed and cultured again for 24 hours. The cells obtained through centrifugation are valvular interstitial cells and were cultured in DMEM (high-glucose, Gibco) medium containing 0.1% amphotericin B, 1% penicillin-streptomycin, and 5% FBS.
To induce calcification, cells were seeded at a density of 1×10^4/ml in a 96-well culture vessel, and calcification was induced for a total of 10 days. […]
To quantify Alizarin Red stain, after washing twice with PBS, it was fixed with cold 70% ethanol at 4° C. for 1 hour, and after washing with dH2O, the sample was treated with 10% CPC (cetylpyridinium chloride, Sigma-Aldrich) for 1 hour (shaken and in the dark), transferred to a new measuring container, and measured for absorbance at 550 nm.
Interstitial cells were isolated from porcine heart valves and the inhibitory effect of paquinimod or tasquinimod on valvular calcification was confirmed according to the concentration. Porcine valve-derived cells were induced to calcify by NaH2PO4, and the degree of valvular calcification was measured after treatment with paquinimod or tasquinimod at different concentrations under the same conditions.

Assay [2] deals with Osteopontin (OPN). Put plainly: Western blot analysis of calcification marker osteopontin in calcification-induced valvular interstitial cells. It counts as cell-based, porcine. The conditions noted are these: compared to the calcification-induced experimental group; calcification induced for 10 days; FIG. 3. The protocol:
as §1
(§2) To induce calcification, cells were seeded at a density of 1×10^4/ml in a 96-well culture vessel, and calcification was induced for a total of 10 days. Control medium (CM) used DMEM containing 0.1% amphotericin B, 1% penicillin-streptomycin, and 5% FBS and the pro-calcifying medium (PCM) was a control medium with 2 mM NaH2PO4 added. The medium was replaced every 2 days.
(§3) To observe if anti-calcification substances inhibit calcification, 10 uM or 100 uM paquinimod or 10 uM tasquinimod were treated, and 10% DMSO (Sigma-Aldrich) was treated as a control, and then cultured in a cell incubator at 37° C. with a 5% CO2 concentration.
(§4) After seeding cells at 5×10^4/mL in a 6-well plate, calcification was induced for a total of 10 days. […]
(§5) To lyse the cells, 1×RIPA buffer was added to each well and lysed for 10 minutes. […] Protein quantification of the obtained cell lysates was measured using Bio-Rad DC protein reagent. […]
(In general: Immunoblotting shows a protein as a band on a membrane.)

In assay [3] the test system is RUNX2 (Runt-related transcription factor2). Put plainly: Western blot analysis of calcification marker RUNX2 in calcification-induced valvular interstitial cells. It is filed as cell-based, porcine. The conditions noted are these: compared to the calcification-induced experimental group; calcification induced for 10 days; FIG. 3. The protocol:
as §1, §2, §3, §4, §5

Structures are written as SMILES.

In the case of `COc1cccc2c1c(O)c(C(=O)N(C)c1ccc(C(F)(F)F)cc1)c(=O)n2C` [tasquinimod], in assay [1] (10 uM tasquinimod, FIG. 2), the “degree of valvular calcification” value is on record as “had an inhibitory effect on valvular calcification”.

In the case of `CCc1cccc2c1c(O)c(C(=O)N(CC)c1ccccc1)c(=O)n2C` [paquinimod], the “expression of osteopontin (Western blot)” value in assay [2] is “significantly reduced”. Further, in assay [1] (10 uM or more of paquinimod (10 uM or 100 uM), FIG. 1), the “degree of valvular calcification (Alizarin red staining and CPC analysis)” value was “inhibition of valvular calcification in a concentration-dependent manner”. The “expression of RUNX2 (Western blot)” value in assay [3] is listed as “significantly reduced”.
